Experimental data: publication PMC9406419, “OATD-02 Validates the Benefits of Pharmacological Inhibition of Arginase 1 and 2 in Cancer” (Cancers, 2022)

Key:
recombinant human ARG1 = target: T1, recombinant human ARG1 (Homo sapiens, UniProt P05089); assay: Recombinant arginase inhibition assay (colorimetric urea detection), ARG1; type: biochemical; conditions: recombinant human ARG1, 10 mM L-arginine, 37 °C, 1 h, pH 7.4
T1 construct: made in house; host or cells: E. coli
T1 sequence (P05089 1-322): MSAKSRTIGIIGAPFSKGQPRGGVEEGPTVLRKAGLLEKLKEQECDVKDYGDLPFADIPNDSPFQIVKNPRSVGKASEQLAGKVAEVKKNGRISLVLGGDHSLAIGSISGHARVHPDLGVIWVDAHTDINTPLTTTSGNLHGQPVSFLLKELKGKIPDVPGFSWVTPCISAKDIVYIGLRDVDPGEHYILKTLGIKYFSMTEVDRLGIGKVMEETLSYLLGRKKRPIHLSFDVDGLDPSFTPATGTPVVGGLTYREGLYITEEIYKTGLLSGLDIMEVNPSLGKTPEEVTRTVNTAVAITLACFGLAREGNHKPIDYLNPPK
Procedure: The enzymatic reaction was carried out at 37 °C for 1 h in the assay buffer (100 mM sodium phosphate buffer, 130 mM NaCl, pH 7.4) with the addition of 1 mg/mL BSA in the presence of 200 µM MnCl2 (enzyme cofactor), 10 mM (for ARG1) or 20 mM (for ARG2) of L-arginine hydrochloride (enzyme substrate), and serial dilutions of the test compounds. The inhibition of the arginase activity was determined by colorimetric detection of produced urea, as previously described [29] with minor changes. Briefly, 150 µL of freshly prepared developing reagent (2 mM o-phthaldialdehyde (OPA), 2 mM N-(1-naphthyl)ethylenediamine dihydrochloride (NED), 50 mM boric acid, 1 M sulfuric acid, 0.03% Brij-35) was added to each well, incubated for 20 min at RT, then the absorbance at 515 nm was measured. Normalized values were fitted to a four-parameter equation using GraphPad Prism and IC50 values were determined.

K562 cells = assay: Long-term culture of OATD-02-treated K562 cells (viable cell count, propidium iodide); type: cell-based, human; conditions: different concentrations, 14 days, medium not replaced
Procedure: CT26.WT (CRL-2638, CT26, mouse colon carcinoma) and K562 (CCL-243, human CML) cell lines were purchased from the ATCC®. Adherent CT26 and non-adherent K562 cells were maintained in the RPMI-1640 medium (Gibco, Life Technologies, Carlsbad, CA, USA) supplemented with 10% foetal bovine serum (FBS, #10270106, ThermoFisher/Gibco™) and 100 U/mL penicillin G and 100 µg/mL streptomycin (Antibiotic-Antimycotic, #15240062, Gibco®) at 37 °C in a humidified 5% CO2 atmosphere. Full-grown monolayers of CT26 cells were trypsinized for 15 min (0.25% Gibco® Trypsin-EDTA), harvested, and passaged several times for expansion. Both cell lines were confirmed at the last used passage to be mycoplasma-free (Mycoalert Detection Kit, Lonza, Basel, Switzerland). The Renca (murine renal adenocarcinoma) cell line was maintained for the in vivo study conducted at Crown Biosciences (Beijing, China). A monolayer culture was grown in DMEM medium supplemented with 10% FBS at 37 °C and 5% CO2. The cells were harvested in exponential growth phase and used for inoculation. […] To assess the antiproliferative effects of OATD-02, the culture medium has not been replaced during this period and the cell density/viability (propidium iodide staining) was determined daily. […]

K562 tumours = assay: K562 xenograft model in T and NK cell-deficient Fox Chase SCID Beige mice; type: in vivo, mouse; conditions: 50 mg/kg PO BID from day 7, day 19
Procedure: CT26 and K562 in vivo experiments were conducted at Molecure SA. All experimental procedures were approved by the 1st Local Ethics Committee in Warsaw (Poland). For the syngeneic CT26 model, 7–8-week old BALB/c females (n = 9–18 per group, BALB/cAnNCrl, Charles River Laboratories) were injected subcutaneously in the right flank with 5 × 10^5 CT26 cells. […] Anti-PD-L1 antibody (InVivoPlus anti-mouse PD-L1, clone 10F.9G2, BioXCell, lot 615416D1) was injected intraperitoneally at 2.5 mg/kg on days: 8, 10, 12, 14 and 16 post tumour cells inoculation. Control groups received vehicle (saline) or isotype antibody (InVivoPlus rat IgG2b, anti-KLH, BioXCell, lot 629816D1). For the xenograft K562 model, 7–8 week-old athymic nude mice (n = 8–11 per group, Crl:NU(NCr)-Foxn1^nu, Charles River Laboratories) or NK cell-deficient Fox Chase SCID Beige mice (n = 10–12 per group, CB17.Cg-Prkdc^scidLyst^bg-J/Crl, Charles River Laboratories) were injected subcutaneously in the right flank with 1 × 10^7 K562 cells. […] Tumour volume measured by a digital calliper (width × length × depth × π/6) was recorded three times per week. Animals were euthanized when tumours were necrotized or volume exceeded 2000 mm^3. Renca in vivo efficacy study was performed at Crown Biosciences Inc. (Taicang, China). […] Tumour volumes (length × width^2 × 0.5) were measured twice per week. […]

CN(C)C[C@@H]1CC[C@@H](CCB(O)O)C[C@]1(N)C(=O)O [OATD-02]
IC50 (recombinant human ARG1): 17 nM
survival of K562 cells in long-term culture (K562 cells): dying faster in a dose-dependent manner
final TGI, K562 tumor volumes, Fox Chase SCID Beige mice (K562 tumours): 47%
